Data from US10828326B2, “Compositions and methods for treating and preventing venom related poisoning” (priority 2015, dated 2020).

How the values were obtained:
[1] = test system: Crotalus atrox venom-enhanced tissue-type plasminogen activator initiated fibrinolysis; test: Thrombelastography of human plasma pretreated with iron and/or CO before venom exposure in the presence of tPA (Example II); format: biochemical; conditions: 100 IU/ml tPA; for time to maximum rate of thrombus generation (TMRTG): 100 μM CORM-2
Description: Two hundred mg of lyophilized, pooled venom was obtained from four western diamondback rattlesnakes (Crotalus atrox) for experimentation. Venom was reconstituted in calcium-free phosphate buffered saline (PBS, Sigma-Aldrich, Saint Louis, Mo., USA) at a concentration of 20 mg/ml, aliquoted, and then stored at −80° C. until experimentation at the University of Arizona.
Pooled normal plasma (George King Bio-Medical, Overland Park, Kans., USA) anticoagulated with sodium citrate was rapidly thawed at 37° C. and used for experimentation. To assess the effects of pretreatment of antifibrinolytic plasma proteins with iron, CO, or both, 1% additions of PBS, ferric chloride (FeCl3, 99.9% pure, Sigma-Aldrich, Saint Louis, Mo., USA) in PBS, or CORM-2 (tricarbonyldichlororuthenium (II) dimer, a CO releasing molecule, Sigma-Aldrich, Saint Louis, Mo., USA) dissolved in dimethyl sulfoxide (DMSO, Sigma-Aldrich, Saint Louis, Mo., USA) were used. […] Plasma was exposed to these various agents for at least 5 min prior to incubations with venom.
The final volume for all subsequently described plasma sample mixtures was 359.4 μl. Sample composition consisted of […] of plasma; 10 μl of tissue factor reagent (0.1% final concentration in distilled water; Diagnostica Stago S.A.S., Asnieres sur Seine, France), 10 μl of tissue type plasminogen activator (tPA, 580 IU/μg, Genentech, Inc., San Francisco, Calif., USA; 100 IU/ml final concentration) and 3.4 μl of PBS or venom (final concentration 0.5-2.0 μg/ml). […] The aforementioned plasma and venom mixtures were placed in a disposable cup in a computer-controlled Thrombelastograph® hemostasis system (Model 5000, Haemoscope Corp., Niles, Ill., USA) and incubated for 5 min at 37° C., with addition of 20 μl of 200 mM CaCl2) as the last step to initiate clotting. Data were collected at 37° C. until clot lysis time (CLT) was observed. The following elastic modulus-based parameters previously described (see, Nielsen V G, Pretorius E. Blood Coagul Fibrinolysis 2014; 25:695-702) were determined: time to maximum rate of thrombus generation (TMRTG): this is the time interval (min) observed prior to maximum speed of clot growth; maximum rate of thrombus generation (MRTG): this is the maximum velocity of clot growth observed (dynes/cm^2/sec); total thrombus generation (TTG, dynes/cm^2), the final viscoelastic resistance observed after clot formation; time to maximum rate of lysis (TMRL, min), maximum rate of lysis (MRL, dynes/cm^2/sec) and CLT (min). Lastly, to assess if venom had thrombolytic properties that were tPA independent, n=4 replicates were performed wherein no tPA was added and data were collected for 3 h.
Data are presented as mean±SD. All conditions unless otherwise indicated were represented by n=8 replicates. This number of replicates reliably provides a statistical power>0.8 for P<0.05 (see, Nielsen V G, Pretorius E. Blood Coagul Fibrinolysis 2014; 25:695-702). A commercially available statistical program was used for two-way analysis of variance (ANOVA) to assess interactions of venom and tPA on coagulation kinetics and interactions of iron and CO on venom-enhanced fibrinolysis (SigmaStat 3.1, Systat Software, Inc., San Jose, Calif., USA). Additional one-way ANOVA followed by Holm-Sidak post hoc analyses were performed to assess differences between the conditions. Graphics depicting viscoelastic data were generated with a commercially available program (OrigenPro 7.5, OrigenLab Corporation, Northampton, Mass., USA).

[2] = rabbit ear-bleed model; CORM-2 injected at 10 mg/kg (equivalent to 279 μM final concentration); cited from earlier work
C. atrox venom = test: Isolated venom exposure to FeCl3, CORM-2 or iCORM-2, then thrombelastography in human plasma (Example VI); format: biochemical, Crotalus atrox; conditions: in words
Description: C. atrox venom was obtained from the National Natural Toxins Research Center at Texas A&M University-Kingsville, Tex., USA. Venom was reconstituted in calcium-free phosphate buffered saline (PBS, Sigma-Aldrich, Saint Louis, Mo., USA), and stored at −80° C. Pooled human normal plasma anticoagulated with sodium citrate was obtained from George King Bio-Medical, Overland Park, Kans., USA. Ferric chloride (FeCl3, 99.9% pure), tricarbonyldichlororuthenium (II) dimer (CORM-2), and dimethyl sulfoxide (DMSO) were obtained from Sigma-Aldrich. The final concentrations of FeCl3 (dissolved in PBS) and CORM-2 (dissolved in DMSO) were 0-10 μM and 0-100 μM, respectively; these were the concentrations used in previous works involving the effects of modifying fibrinogen prior to venom exposure in plasma.
To increase the detection of effects of iron/CO on venom activity, the concentration of venom chosen for isolated exposure and for addition to plasma was twice the amount expected to eliminate coagulation based on previous work (see, Nielsen V G, Boyer L V. Iron and carbon monoxide attenuate degradation of plasmatic coagulation by Crotalus atrox venom. Blood Coagul Fibrinolysis. In press). A 1 ml quantity of a 200 μg/ml solution of venom in PBS was prepared for each condition subsequently presented. The conditions were: 1) 1% addition (v/v) of PBS and DMSO to PBS without venom; 2) 1% addition (v/v) of PBS and DMSO to PBS with venom; 3) 1% addition of FeCl3 and CORM-2 to PBS without venom; 4) 1% addition of FeCl3 and CORM-2 to PBS […]) 1% addition of FeCl3 and DMSO to PBS with venom; 6) 1% addition of CORM-2 to PBS with venom; and lastly, 7) 1% addition of PBS and iCORM-2 to PBS with venom. After 3 min of incubation at room temperature, 3.6 μl of solution from one of these conditions was placed into 326 μl of plasma and 10 μl of tissue factor reagent (0.1% final concentration in distilled water; Diagnostica Stago S.A.S., Asnieres sur Seine, France) in a disposable cup in a computer-controlled Thrombelastograph® hemostasis system (Model 5000, Haemonetics Inc., Braintree, Mass., USA). After test solution addition, 20 μl of 200 mM CaCl2 was immediately added to initiate clotting. Data were collected at 37° C. for 15 min. […] 2014; 25(8):801-805) were determined: time to maximum rate of thrombus generation (TMRTG): this is the time interval (min) observed prior to maximum speed of clot growth; maximum rate of thrombus generation (MRTG): this is the maximum velocity of clot growth observed (dynes/cm^2/sec); and total thrombus generation (TTG, dynes/cm^2), the final viscoelastic resistance observed after clot formation. […]

Crotalus atrox venom = test: Thrombelastography of human plasma pretreated with iron and/or CO, then incubated with Crotalus atrox venom (Example I); format: biochemical; conditions: 0.5 μg/ml venom, 5 min incubation
Description: (§1) Two-hundred mg of lyophilized, pooled venom was obtained from four western diamondback rattlesnakes (Crotalus atrox) for experimentation. Venom was reconstituted in calcium-free phosphate buffered saline (PBS, Sigma-Aldrich, Saint Louis, Mo., USA) at a concentration of 20 mg/ml, aliquoted, and then stored at −80° C. until experimentation at the University of Arizona. Pooled human normal plasma (George King Bio-Medical, Overland Park, Kans., USA) anticoagulated with sodium citrate was rapidly thawed at 37° C. and used for experimentation. To assess the effects of pretreatment of fibrinogen with iron, CO, or both, 1% additions of PBS, ferric chloride (FeCl3, 99.9% pure, Sigma-Aldrich, Saint Louis, Mo., USA) in PBS, or CORM-2 (tricarbonyldichlororuthenium (II) dimer, a CO releasing molecule, Sigma-Aldrich, Saint Louis, Mo., USA) dissolved in dimethyl sulfoxide (DMSO, Sigma-Aldrich, Saint Louis, Mo., USA). The final concentrations of FeCl3 and CORM-2 were 10 μM and 100 μM, respectively; these concentrations are associated with nearly maximal augmenting effects on coagulation kinetics (see, Nielsen V G, et al., Blood Coagul Fibrinolysis 2014; 25:695-702). Plasma was exposed to these various agents for at least 5 min prior to incubations with venom.
(§2) The final volume for all subsequently described plasma sample mixtures was 359.4 μl. Sample composition consisted of 326 μl of plasma; 10 μl of tissue factor reagent (0.1% final concentration in distilled water; Diagnostica Stago S.A.S., Asnieres sur Seine, France) and 3.4 μl of PBS or venom (final concentration 0.5 μg/ml). […] The aforementioned plasma and venom mixtures were placed in a disposable cup in a computer-controlled Thrombelastograph® hemostasis system (Model 5000, Haemoscope Corp., Niles, Ill., USA) and incubated for 5 or 20 min at 37° C., with addition of 20 μl of 200 mM CaCl2) as the last step to initiate clotting. Data were collected at 37° C. for 15 min after 5 min of incubation, whereas samples incubated with venom for 20 min had data collected for 30 min, given the prolonged onset of coagulation and diminished rate of thrombus formation. The following elastic modulus-based parameters previously described (see, Nielsen, et al., 2014, Blood Coagul. Fibrinolysis 25:695-702; Nielsen, et al., 2011, Blood Coagul. Fibrinolysis 22: 443-447); Nielsen V G, et al., Blood Coagul Fibrinolysis 2014; 25:845-850) were determined: time to maximum rate of thrombus generation (TMRTG): this is the time interval (min) observed prior to maximum speed of clot growth; maximum rate of thrombus generation (MRTG): this is the maximum velocity of clot growth observed (dynes/cm^2/sec); and total thrombus generation (TTG, dynes/cm^2), the final viscoelastic resistance observed after clot formation.
(§3) Data are presented as mean+SD. A commercially available statistical program was used for one-way analysis of variance followed by Holm-Sidak post hoc analyses (SigmaStat 3.1, Systat Software, Inc., San Jose, Calif., USA). Graphics depicting viscoelastic data were generated with a commercially available program (OrigenPro 7.5, OrigenLab Corporation, Northampton, Mass., USA; CorelDRAW12, Corel Corporation, Mountain View, Calif., USA).

human plasma = test: Thrombelastography of venom naïve human plasma with iron and/or CO addition (Example I); format: biochemical; conditions: baseline (venom naïve); 10 μM FeCl3 and/or 100 μM CORM-2; compared to plasma without any additions
Description: as §1, §2, §3

[3] = 10 μM ferric chloride or 100 μM CORM-2, vs matched samples without or with venom exposure (0.5 μg/ml)

| Compound | maximum rate of lysis (MRL) ([1]; 100 μM CORM-2 addition followed by venom exposure (0.5 μg/ml)) | maximum rate of lysis (MRL) ([1]; 100 μM CORM-2 addition, without venom) | adverse effects [2] | effects on C. atrox venom activity on plasmatic coagulation (C. atrox venom; isolated venom exposure) | coagulation kinetic parameters of plasma after addition of PBS with venom exposed to the agent (C. atrox venom; venom 2 μg/ml final, 10 μM FeCl3, 100 μM CORM-2 or iCORM-2) | clot lysis time (CLT) [1, 3] | maximum rate of thrombus generation (MRTG) [1, 3] | time to maximum rate of lysis (TMRL) [1, 3] | total thrombus generation (TTG) [1, 3] | time to maximum rate of thrombus generation (TMRTG) ([1]; venom exposed plasma (0.5 μg/ml)) | time to maximum rate of thrombus generation (TMRTG) ([1]; venom naïve samples) | maximum rate of thrombus generation (MRTG), change on venom exposure (Crotalus atrox venom; vs matched venom naïve samples) | maximum rate of thrombus generation (MRTG) (Crotalus atrox venom; vs plasma without additions exposed to venom) | clot strength (TTG) (Crotalus atrox venom; vs samples without CO added) | maximum rate of thrombus generation (MRTG) (human plasma) | time to maximum rate of thrombus generation (TMRTG) (human plasma) | total thrombus generation (TTG) (human plasma) |
| --- | --- | --- | --- | --- | --- | --- | --- | --- | --- | --- | --- | --- | --- | --- | --- | --- | --- |
| [C-]#[O+].[C-]#[O+].[C-]#[O+].[C-]#[O+].[C-]#[O+].[C-]#[O+].[Cl][Ru][Cl].[Cl][Ru][Cl] [CORM-2, tricarbonyldichlororuthenium (II) dimer] | reduced MRL to control values | significantly increased | without adverse effects noted | completely inhibited | not different from PBS/DMSO exposed plasma | – | – | – | – | – | – | – | – | – | – | – | – |
| tricarbonyldichlororuthenium (II) dimer [CORM-2] | – | – | – | – | – | significantly greater | significantly greater | significantly greater | greater | significantly less | did not significantly affect | significantly decreased | significantly greater | significantly greater | significant increase | no change | significant increase |
